Assay results as given in ChEMBL document CHEMBL1147064 (Proc Natl Acad Sci U S A, 2007).

Legend:
[1] = Toxicity against mouse Neuro2a cells at =>5 uM; assay type: cell-based; conditions: n2a
[2] = target: Botulinum neurotoxin type A (Clostridium botulinum, UniProt P0DPI0)
Sequence of Botulinum neurotoxin type A (P0DPI0 2-448 limits assumed): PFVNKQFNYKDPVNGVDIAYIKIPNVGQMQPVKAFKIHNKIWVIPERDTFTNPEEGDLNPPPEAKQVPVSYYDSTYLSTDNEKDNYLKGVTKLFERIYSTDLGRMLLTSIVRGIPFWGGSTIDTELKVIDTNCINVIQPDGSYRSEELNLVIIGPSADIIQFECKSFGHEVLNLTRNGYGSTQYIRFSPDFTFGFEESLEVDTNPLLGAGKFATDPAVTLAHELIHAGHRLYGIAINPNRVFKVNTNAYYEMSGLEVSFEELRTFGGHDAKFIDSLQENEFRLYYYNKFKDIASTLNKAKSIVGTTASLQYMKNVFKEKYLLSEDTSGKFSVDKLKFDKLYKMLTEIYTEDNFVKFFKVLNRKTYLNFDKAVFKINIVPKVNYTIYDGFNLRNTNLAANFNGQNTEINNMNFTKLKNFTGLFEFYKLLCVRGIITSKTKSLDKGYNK

SMILES: O=C(/C=C/c1ccc(Cl)cc1Cl)NO [CINNAMIC ACID HYDROXAMATE]
- Activity [1]: Toxic

SMILES: COc1ccc(CCNC(=O)CN(CC(=O)N[C@H]2C[C@@H]2c2ccccc2)C(=O)Cn2c(C(=O)N[C@H]3CCCC[C@@H]3NC(=O)c3cc4ccccc4n3CC(=O)N(CC(=O)NCCc3ccc(OC)cc3)CC(=O)N[C@@H]3C[C@H]3c3ccccc3)cc3ccccc32)cc1
- IC50 [2]: 7.6 µM

SMILES: CCC1CN(C(=O)/C=C/c2ccccc2)CC(=O)N1Cc1ccc(C)cc1 (stereo not drawn)
- IC50 [2]: 12.5 µM
